Values of other authors, collected in US20050267091A1 (priority 2004, published 2005).

Experiments:
[1] = in vivo
[2] = not given; remark: listed apart in the source

## O=C(O)c1cccnc1 [Niacin]
[1]
  increase of blood levels of HDL cholesterol: up to 35%
  reduction of total cholesterol: up to 15%
  reduction of triglyceride levels: up to 30%
Most common side effect
  patients affected by flushing (redness) of the face and neck: more than three quarters of patients
Patients treated with standard niacin
  patients who discontinue because of adverse effects: more than 40%

## CC(C)c1nc(N(C)S(C)(=O)=O)nc(-c2ccc(F)cc2)c1/C=C/[C@@H](O)C[C@@H](O)CC(=O)O [Crestor®, rosuvastatin]
[2]; cited by consumer advocacy group, March 2004
  cases of serious side effects: 16 cases

## COCc1c(C(C)C)nc(C(C)C)c(/C=C/[C@@H](O)C[C@@H](O)CC(=O)O)c1-c1ccc(F)cc1 [Baycol®, cervastatin]
[2]; market withdrawal August 2001
  deaths linked to the drug: 31 deaths
